System: MCF7 breast cancer cells

O=P1(N(CCCl)CCCl)NCCCO1 (stereo not shown) [cyclophosphamide]
number of dead cells and ratio of dead to live cells: significant increase in the number of dead cells
